# Patent US20030050306A1, “Novel heteroaryl derivatives, their preparation and use” (H. Lundbeck A/S, priority 1999, published 2003)
# How the values were obtained:
# [1] = target: T1, human cloned dopamine D4.2 receptors (Homo sapiens, UniProt P21917, DEL265-296); experiment: Inhibition of the binding of 3H-YM-09151-2 to human dopamine D4 receptors; details: human cloned dopamine D4.2 receptors in CHO-cells
# T1 construct: expressed in transfected cells; host or cells: CHO cells
# T1 sequence (P21917 with tags, fused parts or gaps DEL265-296): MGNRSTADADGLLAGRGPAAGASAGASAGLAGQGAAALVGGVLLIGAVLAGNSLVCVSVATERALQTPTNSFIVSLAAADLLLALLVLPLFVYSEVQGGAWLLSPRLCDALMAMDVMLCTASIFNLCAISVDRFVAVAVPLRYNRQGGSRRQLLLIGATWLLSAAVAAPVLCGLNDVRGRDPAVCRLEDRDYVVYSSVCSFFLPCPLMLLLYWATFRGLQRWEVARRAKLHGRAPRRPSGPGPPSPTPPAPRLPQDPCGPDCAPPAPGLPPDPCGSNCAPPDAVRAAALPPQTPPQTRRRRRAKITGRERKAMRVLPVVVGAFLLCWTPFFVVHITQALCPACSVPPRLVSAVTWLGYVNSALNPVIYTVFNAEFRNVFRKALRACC
# Method: The compounds of the invention have also been tested for their affinity to dopamine D4 receptors in the following test.
# Inhibition of the Binding of ^3H-YM-09151-2 to Human Dopamine D4 Receptors
# By this method the inhibition by drugs of the binding of [^3H]YM-09151-2 (0.06 nM) to membranes of human cloned dopamine D4.2 receptors expressed in CHO-cells is determined in vitro. Method modified from NEN Life Science Products, Inc., technical data certificate PC2533-10/96.
# [2] = target: T2, cloned human 5-HT1A receptors (Homo sapiens, UniProt P08908); experiment: Inhibition of 3H-5-CT binding to human 5-HT1A receptors; details: cloned human 5-HT1A receptors in HeLa cells (HA7)
# T2 construct: expressed in transfected cells; host or cells: HeLa cells (HA7)
# T2 sequence (P08908 1-422): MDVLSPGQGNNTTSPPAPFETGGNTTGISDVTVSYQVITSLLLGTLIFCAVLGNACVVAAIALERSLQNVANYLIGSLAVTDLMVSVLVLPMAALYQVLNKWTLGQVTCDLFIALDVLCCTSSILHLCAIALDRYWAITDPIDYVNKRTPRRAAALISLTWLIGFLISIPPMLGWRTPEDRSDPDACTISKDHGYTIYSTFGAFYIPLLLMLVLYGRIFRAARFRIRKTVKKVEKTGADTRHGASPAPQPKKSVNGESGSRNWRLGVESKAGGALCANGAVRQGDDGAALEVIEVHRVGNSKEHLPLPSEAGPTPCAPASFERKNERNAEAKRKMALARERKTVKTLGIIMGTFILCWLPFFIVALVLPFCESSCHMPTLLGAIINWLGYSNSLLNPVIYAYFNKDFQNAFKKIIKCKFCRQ
# Method: The affinity of the compounds of the invention to 5-HT1A receptors was determined by measuring the inhibition of binding of a radioactive ligand at 5-HT1A receptors as described in the following test:
# Inhibition of ^3H-5-CT Binding to Human 5-HT1A Receptors
# By this method the inhibition by drugs of the binding of the 5-HT1A agonist ^3H-5-carboxamido tryptamine (3H-5-CT) to cloned human 5-HT1A receptors stably expressed in transfected HeLa cells (HA7) (Fargin, A. et al, J. Biol. Chem., 1989, 264, 14848) is determined in vitro. The assay was performed as a modification of the method described by Harrington, M. A. et at, J. Pharmacol. Exp. Ther., 1994, 268, 1098. Human 5-HT1A receptors (40 μg of cell homogenate) were incubated for 15 minutes at 37° C. in 50 mM Tris buffer at pH 7.7 in the presence of ^3H-5-CT. Non-specific binding was determined by including 10 μM of metergoline. The reaction was terminated by rapid filtration through Unifilter GF/B filters on a Tomtec Cell Harvester. Filters were counted in a Packard Top Counter.
IC50 [1],IC50 [2],Compound,also measured
1.3 nM,2.8 nM,"c1ccc(SCCCN2CCN(c3cccc4c3OCCO4)CC2)cc1 [Compound 4a, 1-(2,3-Dihydro-benzo[1,4]dioxin-5-yl)-4-(3-phenylsulfanyl-propyl)-piperazine]",
1.1 nM,10 nM,"Clc1ccccc1OCCCN1CCN(c2cccc3c2OCCO3)CC1 [Compound 1a, 1-[3-(2-Chloro-phenoxy)-propyl]-4-(2,3-dihydro-benzo[1,4]dioxin-5-yl)-piperazine]",
1.2 nM,8 nM,"Fc1ccc(OCCCCN2CCN(c3cccc4c3OCCO4)CC2)c(Br)c1 [Compound 5be, 1-[4-(2-Bromo-4-fluoro-phenoxy)-butyl]-4-(2,3-dihydro-benzo[1,4]dioxin-5-yl)-piperazine]",
0.53 nM,4.9 nM,"Fc1ccc(OCCCN2CCN(c3cccc4c3OCCO4)CC2)c(Br)c1 [Compound 5aa, 1-[3-(2-Bromo-4-fluoro-phenoxy)-propyl]-4-(2,3-dihydro-benzo[1,4]dioxin-5-yl)-piperazine]",
1.4 nM,2.4 nM,"Fc1ccc(SCCCN2CCN(c3cccc4c3OCCO4)CC2)c(Cl)c1 [Compound 5ac, 1-[3-(2-Chloro-4-fluoro-phenylsulfanyl)-propyl]-4-(2,3-dihydro-benzo[1,4]dioxin-5-yl)-piperazine]",
1.7 nM,15 nM,"N#Cc1ccccc1OCCCN1CCN(c2cccc3c2OCCO3)CC1 [Compound 2d, 2-{3-[4-(2,3-Dihydro-benzo[1,4]dioxin-5-yl)-piperazin-1-yl]-propoxy}-benzonitrile]",
3 nM,5.3 nM,"COc1cc(F)ccc1OCCCN1CCN(c2cccc3c2OCCO3)CC1 [Compound 1d, 1-(2,3-Dihydro-benzo[1,4]dioxin-5-yl)-4-[3-(4-fluoro-2-methoxy-phenoxy)-propyl]-piperazine]",
6.2 nM,4.8 nM,"Fc1cc(Cl)c(OCCCCN2CCN(c3cccc4c3OCCO4)CC2)c(Cl)c1 [Compound 5bp, 1-[4-(2,6-Dichloro-4-fluoro-phenoxy)-butyl]-4-(2,3-dihydro-benzo[1,4]dioxin-5-yl)-piperazine]",

# Further lines, the compound ahead of its results:
Compound,IC50 [1],IC50 [2],also measured
"Brc1cccc(SCCCN2CCN(c3cccc4c3OCCO4)CC2)c1 [Compound 7bl, 1-(2,3-Dihydro-benzo[1,4]dioxin-5-yl)-4-[3-(3-bromo-phenylsulfanyl)-propyl]-piperazine]",,,inhibition at 0.05 µM ([1]; at 50 nM): 102%; inhibition at 0.1 µM ([2]; at 100 nM): 95%
"COc1ccccc1SCCCCN1CCN(c2cccc3c2OCCO3)CC1 [Compound 7bm, 1-(2,3-Dihydro-benzo[1,4]dioxin-5-yl)-4-[4-(2-methoxy-phenylsulfanyl)-butyl]-piperazine]",,,inhibition at 0.05 µM ([1]; at 50 nM): 83%; inhibition at 0.1 µM ([2]; at 100 nM): 95%
"CCc1ccccc1OCCN1CCN(c2cccc3c2OCCO3)CC1 [Compound 7ag, 1-(2,3-Dihydro-benzo[1,4]dioxin-5-yl)-4-[2-(2-ethyl-phenoxy)-ethyl]-piperazine]",,,inhibition at 0.05 µM ([1]; at 50 nM): 88%; inhibition at 0.1 µM ([2]; at 100 nM): 79%
"Clc1ccccc1SCCCN1CCN(c2cccc3ccsc23)CC1 [Compound 5ce, 1-Benzo[b]thiophen-7-yl-4-[3-(2-chloro-phenylsulfanyl)-propyl]-piperazine]",16 nM,4.8 nM,
"N#Cc1ccc(N2CCN(CCCOc3ccc(F)cc3Cl)CC2)c2c1OCCO2 [Compound 5ck, 8-{4-[3-(2-chloro-4-fluorophenoxy)-propyl]-piperazin-1-yl}-2,3-dihydro-benzo[1,4]dioxine-5-carbonitrile]",,180 nM,inhibition at 0.05 µM ([1]; at 50 nM): 77%
"Cc1cccc(Cl)c1SCCCCN1CCN(c2cc(Cl)cc3c2OC(C)(C)C3)CC1 [Compound 5ax, 1-(5-Chloro-2,2-dimethyl-2,3-dihydro-benzofuran-7-yl)-4-[4-(2-chloro-6-methyl-phenylsulfanyl)-butyl]-piperazine]",23 nM,,inhibition at 0.1 µM ([2]; at 100 nM): 33%
"CS(=O)(=O)c1cc(Cl)c(OCCCN2CCN(c3cccc4ccsc34)CC2)c(Cl)c1 [Compound 5ao, 1-Benzo[b]thiophen-7-yl-4-[3-(2,6-dichloro-4-methanesulfonyl-phenoxy)-propyl]-piperazine]",68 nM,3.8 nM,
"CC(C)c1ccccc1SCCCCN1CCN(c2cccc3c2OCCO3)CC1 [Compound 7bn, 1-(2,3-Dihydro-benzo[1,4]dioxin-5-yl)-4-[4-(2-isopropyl-phenylsulfanyl)-butyl]-piperazine]",,,inhibition at 0.05 µM ([1]; at 50 nM): 93%; inhibition at 0.1 µM ([2]; at 100 nM): 93%
"N#Cc1cc(Br)c(OCCCN2CCN(c3cccc4c3OCCO4)CC2)c(Br)c1 [Compound 5bx, 3,5-Dibromo-4-{3-[4-(2,3-dihydro-benzo[1,4]dioxin-5-yl)-piperazin-1-yl]-propoxy}-benzonitrile]",19 nM,2.2 nM,
"Fc1ccc(SCCCCN2CCN(c3cccc4c3OCCO4)CC2)c(Cl)c1 [Compound 7bi, 1-[4-(2-Chloro-4-fluoro-phenylsulfanyl)-butyl]-4-(2,3-dihydrobenzo[1,4]dioxin-5-yl)-piperazine]",,,inhibition at 0.05 µM ([1]; at 50 nM): 101%; inhibition at 0.1 µM ([2]; at 100 nM): 96%
"CC1(C)Cc2cc(Cl)cc(N3CCN(CCCOc4c(Cl)cc(S(C)(=O)=O)cc4Cl)CC3)c2O1 [Compound 5bh, 1-(5-Chloro-2,2-dimethyl-2,3-dihydro-benzofuran-7-yl)-4-[3-(2,6-dichloro-4-methanesulfonyl-phenoxy)-propyl]-piperazine]",76 nM,1.7 nM,
"Cc1cccc(SCCCN2CCN(c3cccc4c3OCCO4)CC2)c1 [Compound 7aq, 1-(2,3-Dihydro-benzo[1,4]dioxin-5-yl)-4-(3-m-tolylsulfanyl-propyl)-piperazine]",,,inhibition at 0.05 µM ([1]; at 50 nM): 82%; inhibition at 0.1 µM ([2]; at 100 nM): 101%
"Clc1ccc(SCCCCN2CCN(c3cccc4c3OCCO4)CC2)cc1Cl [Compound 7an, 1-[4-(3,4-Dichloro-phenylsulfanyl)-butyl]-4-(2,3-dihydro-henzo[1,4]dioxin-5-yl)-piperazine]",,,Inhibition of 3H-YM-09151-2 binding % inhibition at 50 nM ([1]; at 50 nM): 91%; Inhibition of 3H-5-CT Binding % inhibition at 100 nM ([2]; at 100 nM): 100%
Fc1cc(Br)c(OCCCCN2CCN(c3cccc4c3OCCO4)CC2)c(Br)c1 [Compound 5by],4.3 nM,2.5 nM,
"1-[2-(Bromo-trifluoromethyl-phenylsulfanyl)-ethyl]-4-(2,3-dihydro-benzo[1,4]dioxin-5-yl)-piperazine [Compound 3c]",35 nM,11 nM,
"Clc1ccccc1SCCCCN1CCN(c2cccc3c2OCCO3)CC1 [Compound 7be, 1-[4-(2-Chloro-phenylsulfanyl)-butyl]-4-(2,3-dihydro-benzo[1,4]dioxin-5-yl)-piperazine]",,,inhibition at 0.05 µM ([1]; at 50 nM): 102%; inhibition at 0.1 µM ([2]; at 100 nM): 102%
"Fc1ccc(SCCCN2CCN(c3cccc4ccsc34)CC2)c(Cl)c1 [Compound 2e, 1-Benzo[b]thiophen-7-yl-4-[3-(2-chloro-4-fluoro-phenylsulfanyl)-propyl]-piperazine]",5.4 nM,,
"Fc1ccc(SCCCN2CCN(c3cccc4ccsc34)CC2)c(Cl)c1 [Compound 5ad, 1-Benzo[b]thiophen-7-yl-4-[3-(2-chloro-4-fluoro-phenylsulfanyl)-propyl]-piperazine]",6.6 nM,,
"Fc1ccc(SCCCN2CCN(c3cccc4ccsc34)CC2)c(Cl)c1 [Compound 5ai, 1-Benzo[b]thiophen-7-yl-4-[3-(2-chloro-4-fluoro-phenylsulfanyl)-propyl]-piperazine]",2.9 nM,,
